Data from US20240344062A1, “RIBOSOMAL RNA (rRNA) VARIANTS […] PROTEIN PRODUCTION CAPABILITIES” (THE BROAD INSTITUTE, INC., priority 2021, published 2024).

Tested on: gIII under o-RBS variants
Experiment: Two-stage selection of o-RBS/o-antiRBS pairs (phage titers post infection)
Details: seven o-RBS variants with o-antiRBSlib SPs

o-RBSH3: orthogonal ribosome binding site, SEQ ID NO: 7 (DNA UUUCCAAUAUACAGAUCUAUG; listed as RNA, chemistry not fully specified)
propagation (phage titers) post infection: highest titers
